# Active and inactive are the calls of the source.
# Experiments:
# [1] = Trypanosoma cruzi growth suppression in host cells – NIH3T3 host cells, beta-gal luminescence, confirmation (AID 2044); format: functional, cell-based;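 note: intracellular parasites grown in NIH/3T3 mouse fibroblasts as host cells; luminescent beta-galactosidase reporter signal from transgenic T. cruzi replicating inside host cells; inhibitors lower the luminescence signal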
# [2] = NIH3T3 cell viability loss – ATP luminescence, mouse fibroblasts, counter-screen, dose response (AID 2010); format: functional, cell-based;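 note: cells exposed to compound for about 90 hours before reading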
# [3] = target: T1, Heat shock factor protein 1 (Mus musculus, UniProt P38532); assay: decrease of HSF1-responsive luciferase luminescence – cell-based, NIH3T3, dose retest, confirmation (AID 2382); format: functional;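 note: NIH3T3 fibroblasts with HSF1-driven luciferase reporter stressed by proteasome inhibitor MG132; luminescence from HSF1-driven luciferase expression after 8 hours of MG132 stress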
# T1 sequence (P38532 whole entry): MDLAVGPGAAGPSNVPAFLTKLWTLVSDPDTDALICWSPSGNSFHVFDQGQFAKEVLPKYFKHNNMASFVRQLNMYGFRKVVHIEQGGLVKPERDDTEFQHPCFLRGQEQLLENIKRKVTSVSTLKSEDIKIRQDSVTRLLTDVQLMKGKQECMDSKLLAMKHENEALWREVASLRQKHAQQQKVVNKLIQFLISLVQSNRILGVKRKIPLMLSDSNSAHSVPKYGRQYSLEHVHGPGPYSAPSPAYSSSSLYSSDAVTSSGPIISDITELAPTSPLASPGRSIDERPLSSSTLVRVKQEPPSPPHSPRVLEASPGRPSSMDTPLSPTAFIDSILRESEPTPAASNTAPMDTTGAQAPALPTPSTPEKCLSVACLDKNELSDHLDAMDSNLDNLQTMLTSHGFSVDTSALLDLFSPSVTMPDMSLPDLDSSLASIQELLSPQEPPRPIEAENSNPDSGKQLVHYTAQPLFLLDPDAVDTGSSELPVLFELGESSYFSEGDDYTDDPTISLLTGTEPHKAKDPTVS
# Streptococcus = assay: GAS UMAA2166 growth inhibition – luminescence, BacTiterGlo, counter-screen for streptokinase expression inhibitor project, dose response (AID 1915); format: functional, organism-based;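 note: potency for reduction of bacterial viability or growth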
# Streptokinase A = target: T2, Streptokinase A (Streptococcus pyogenes serotype M1, UniProt P10520); assay: viability-normalized secreted streptokinase activity reduction – plasminogen activation absorbance, OD405, dose response (AID 1914); format: functional, Streptococcus pyogenes M1 GAS;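 note: secreted streptokinase activity via plasminogen activation per viability signal from cell pellet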
# T2 sequence (P10520 whole entry): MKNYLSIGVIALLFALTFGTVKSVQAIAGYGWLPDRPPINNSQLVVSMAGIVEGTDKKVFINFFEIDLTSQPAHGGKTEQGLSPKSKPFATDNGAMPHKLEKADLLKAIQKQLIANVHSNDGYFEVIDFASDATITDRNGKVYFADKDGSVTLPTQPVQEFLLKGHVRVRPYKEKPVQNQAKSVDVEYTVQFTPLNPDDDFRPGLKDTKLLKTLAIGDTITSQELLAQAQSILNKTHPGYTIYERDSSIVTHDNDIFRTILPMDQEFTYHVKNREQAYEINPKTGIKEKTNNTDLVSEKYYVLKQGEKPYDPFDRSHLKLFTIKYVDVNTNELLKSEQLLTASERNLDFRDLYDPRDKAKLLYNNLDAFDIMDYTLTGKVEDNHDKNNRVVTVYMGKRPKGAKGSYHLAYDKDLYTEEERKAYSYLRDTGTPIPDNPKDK
# Cytochrome P450 2C19 = Cytochrome P450 2C19 (Homo sapiens, UniProt P33261); assay: Cytochrome panel assay with activity outcomes. Panel member name: p450-cyp2c19 Compounds with AC50 equal or less than 10 uM are considered active; format: functional
# [4] = system: Streptococcus sp. 'group A'; assay: Streptococcus pyogenes SK(-)GAS viability under kanamycin – luminescence, BacTiterGlo, confirmation, counter-screen for streptokinase expression inhibitor project, dose response (AID 1900); format: functional, organism-based
# Cytochrome P450 1A2 = target: T3, Cytochrome P450 1A2 (Homo sapiens, UniProt P05177);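 note: PubChem cytochrome P450 panel assay, CYP1A2 panel member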
# T3 sequence (P05177 whole entry): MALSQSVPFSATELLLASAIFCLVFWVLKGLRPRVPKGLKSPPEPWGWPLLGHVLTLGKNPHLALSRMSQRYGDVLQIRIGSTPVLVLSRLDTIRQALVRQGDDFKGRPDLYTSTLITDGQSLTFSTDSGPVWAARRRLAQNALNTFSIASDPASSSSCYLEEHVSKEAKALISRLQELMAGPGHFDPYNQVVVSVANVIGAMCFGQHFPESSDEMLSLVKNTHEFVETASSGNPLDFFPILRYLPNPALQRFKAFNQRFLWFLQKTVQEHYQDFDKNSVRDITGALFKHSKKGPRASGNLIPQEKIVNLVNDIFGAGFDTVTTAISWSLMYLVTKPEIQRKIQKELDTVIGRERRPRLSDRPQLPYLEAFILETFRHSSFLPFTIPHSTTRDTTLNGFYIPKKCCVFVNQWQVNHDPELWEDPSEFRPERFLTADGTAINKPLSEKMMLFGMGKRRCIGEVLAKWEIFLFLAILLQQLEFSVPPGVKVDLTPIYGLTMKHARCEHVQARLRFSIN
# Chain of Cytochrome P450 2C19 (P33261 whole entry): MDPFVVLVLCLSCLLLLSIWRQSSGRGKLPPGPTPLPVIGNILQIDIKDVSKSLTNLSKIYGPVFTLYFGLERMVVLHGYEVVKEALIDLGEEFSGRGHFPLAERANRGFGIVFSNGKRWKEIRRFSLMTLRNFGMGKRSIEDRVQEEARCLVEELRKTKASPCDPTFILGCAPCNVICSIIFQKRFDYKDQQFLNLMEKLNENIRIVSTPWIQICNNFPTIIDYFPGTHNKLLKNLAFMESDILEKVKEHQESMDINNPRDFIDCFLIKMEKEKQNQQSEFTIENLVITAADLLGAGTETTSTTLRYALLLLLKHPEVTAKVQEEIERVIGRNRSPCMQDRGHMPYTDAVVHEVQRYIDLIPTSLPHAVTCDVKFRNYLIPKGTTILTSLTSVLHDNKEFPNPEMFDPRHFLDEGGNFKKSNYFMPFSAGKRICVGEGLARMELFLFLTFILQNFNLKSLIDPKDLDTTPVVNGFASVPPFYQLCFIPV
structure (smiles),measurement,setting,value
COc1ccc(C(=O)C2CCCN(Cc3ccc(C#CCCO)cc3)C2)cc1F (stereo not drawn),EC50,[1],0.475 µM (active)
same,EC50,[2],> 60 µM (not active)
O=C(CSc1nc2cc(Cl)ccc2s1)Nc1cccc(S(=O)(=O)N2CCOCC2)c1,EC50,[3],> 195 µM (not active)
CN(C)/C=C/C(=O)c1ccc(-c2ccc(Cl)cc2Cl)o1,EC50,[3],> 195 µM (not active)
Cc1nc(-c2ccc(Cl)cc2)sc1C1(C)CC(c2ccc(Cl)cc2)=NO1 (stereo not drawn),EC50,[3],> 195 µM (not active)
COC(=O)[C@H]1[C@H]2C[C@@H]3c4[nH]c5cc(OC)ccc5c4CCN3C[C@H]2C[C@@H](OC(=O)c2ccc(N)cc2)[C@@H]1OC,EC50,[1],2.04 µM (active)
same,EC50,[2],> 30 µM (not active)
same,EC50,[3],> 195 µM (not active)
COC(=O)c1cc2ccsc2n1Cc1nc(-c2ccc(Cl)cc2)oc1C,EC50,[3],> 195 µM (not active)
O=C(NC(=S)Nn1cnc2c(cnn2-c2ccccc2)c1=O)c1ccc(Oc2ccccc2)cc1,EC50,Streptococcus,> 150 µM (not active)
same,EC50,Streptokinase A,> 150 µM (not active)
Cc1ccc(CN2CCN(Cc3cccc4c3OCO4)CC2CCO)cc1 (stereo not drawn),EC50,[1],0.258 µM (active)
same,EC50,[2],> 60 µM (not active)
Cc1ccc(S(=O)(=O)c2c(C(=O)c3ccccc3)cnc3cc4c(cc23)OCCO4)cc1,EC50,[3],> 195 µM (not active)
Cc1ccccc1Nc1c(-c2ccncc2)nc2ccc(Br)cn12,EC50,[1],0.832 µM (active)
same,EC50,[2],> 30 µM (not active)
CC1=[N+]([O-])C2(C)CCCCC2(O)[N+]([O-])=C1C (stereo not drawn),AC50,Cytochrome P450 2C19; read-out: AC50,15.8 µM (inconclusive)
COc1ccc(-n2c(=O)[nH]cc(C(=O)Nc3ccc4c(c3)OCCO4)c2=O)cc1,AC50,Cytochrome P450 2C19; read-out: AC50,10 µM (inconclusive)
Cc1ccc(CN(C(=O)Cc2cccs2)C(C(=O)NC2CCCC2)c2ccncc2)cc1 (stereo not drawn),EC50,[1],2.29 µM (active)
same,EC50,[2],> 60 µM (not active)
CN(C)CCCNc1cnnc(O)c1Cl,EC50,[1],0.658 µM (active)
same,EC50,[2],> 30 µM (not active)
Cc1ccccc1-c1nc2c3ccccc3nc(S)n2n1,EC50,Streptococcus,> 150 µM (not active)
same,EC50,Streptokinase A,> 150 µM (not active)
same,EC50,[4],14 µM (active)
CCOC(=O)c1cnc(-c2ccccc2)nc1Oc1cccc(Cl)c1,AC50,Cytochrome P450 2C19; read-out: AC50,3.98 µM (inconclusive)
CCOC(=O)Cc1csc(NC(=O)CSc2nnc(-c3ccc(OC)cc3)n2C)n1,EC50,[1],> 60 µM (not active)
same,EC50,[2],> 60 µM (not active)
CSc1nc(NCc2ccccc2)c2c3c(sc2n1)CN(C)CC3,EC50,[1],0.208 µM (active)
same,EC50,[2],> 30 µM (not active)
S=C1NCN2CCN(CC2)CNC(=S)C(=S)NCN2CCN(CC2)CNC1=S,AC50,Cytochrome P450 1A2,3.16 µM (inconclusive)
O=C1CC(c2nc3ccccc3[nH]2)CN1c1ccccc1F (stereo not drawn),EC50,[3],> 195 µM (not active)
O=[N+]([O-])c1ccc(Sc2nccn2Cc2ccccc2)c([N+](=O)[O-])c1,EC50,[1],3.06 µM (active)
same,EC50,[2],> 60 µM (not active)
Oc1ccccc1CNn1cnnc1,AC50,Cytochrome P450 2C19; read-out: AC50,0.2 µM (inconclusive)
COc1cccc(CNC(=O)Cn2c(=O)c3cccn3c3ccccc32)c1,EC50,[3],> 195 µM (not active)
CCCc1c(OCCCOc2ccc(OCC(=O)O)cc2)ccc(CC=O)c1O,AC50,Cytochrome P450 1A2,31.6 µM (inconclusive)
CSc1ncc(C(=O)Nc2cccnc2)c(C(F)(F)F)n1,EC50,[3],> 195 µM (not active)
NC(=O)C1CCN(c2ccnc3cc(Cl)ccc23)CC1,EC50,[3],> 195 µM (not active)
Cc1ccccc1-n1cnc2c(sc3nc(N4CCOCC4)c4c(c32)CCCC4)c1=O,EC50,[1],1.8 µM (active)
same,EC50,[2],> 60 µM (not active)
C[C@@](N)(C(=O)O)c1cccc(CC(=O)O)c1,AC50,Cytochrome P450 2C19; read-out: AC50,20 µM (inconclusive)
same,AC50,Cytochrome P450 1A2,39.8 µM (inconclusive)
CN(C)c1ccc(C(=S)N2CCN(S(=O)(=O)c3ccccc3)CC2)cc1,EC50,[1],2.98 µM (active)
same,EC50,[2],> 60 µM (not active)
N#Cc1cccc(-c2nccc(NCc3cccnc3)n2)c1,AC50,Cytochrome P450 2C19; read-out: AC50,20 µM (inconclusive)
CCn1c(=O)c(C(=O)NNC(=O)c2ccccc2)c(O)c2ccccc21,EC50,Streptococcus,20.9 µM (active)
same,EC50,Streptokinase A,> 150 µM (not active)
same,EC50,[4],7.44 µM (active)
CNc1cc(N2CCCCCC2)ccc1[N+](=O)[O-],AC50,Cytochrome P450 2C19; read-out: AC50,3.55 µM (inconclusive)
Cc1ccc(C)c(NC(=O)COc2coc(CN3CCc4ccccc4C3)cc2=O)c1,EC50,[3],> 195 µM (not active)
COc1cc(NC(=O)c2cc3cccc(OC)c3o2)cc(C(=O)Nc2cccc(C(F)(F)F)c2)c1,EC50,[3],3.5 µM (active)
Cc1ccc(Cn2ncc3c(N4CCN(C)CC4)ncnc32)cc1,EC50,[3],> 195 µM (not active)
O=C(Cn1cnc2c(nnn2Cc2ccc(Cl)cc2)c1=O)N1CCCc2ccccc21,EC50,[3],> 195 µM (not active)
N#CCCn1c(=O)cnc2cnc(Oc3ccccc3)nc21,AC50,Cytochrome P450 1A2,15.8 µM (inconclusive)
CC(C)NC(=O)N1CC2(CCN(C(=O)c3cc(C(F)(F)F)cc(C(F)(F)F)c3)CC2)C1,AC50,Cytochrome P450 1A2,12.6 µM (inconclusive)
Nn1c(=O)c2ccccc2n2c(SCc3ccccc3)nnc12,EC50,[3],> 195 µM (not active)
COc1ccc(C(Nc2ccccn2)c2c(NC(=O)c3ccco3)sc(C)c2C)cc1 (stereo not drawn),EC50,[1],1.86 µM (active)
same,EC50,[2],> 60 µM (not active)
CC(=O)N(CCCc1ccc(C(C)(C)C)cc1)CCCN(C)C,EC50,[1],0.65 µM (active)
same,EC50,[2],> 60 µM (not active)
CCN(CC)S(=O)(=O)c1ccc(N2CCN(c3cccc(OC)c3)CC2)c([N+](=O)[O-])c1,EC50,[1],1.3 µM (active)
same,EC50,[2],> 60 µM (not active)
O=c1c(-c2cc(F)cc(F)c2)nc2cnc(N3CCOCC3)nc2n1-c1ccccc1,AC50,Cytochrome P450 1A2,5.01 µM (inconclusive)
COc1ccc(C2C(=O)N(C3CCCCCC3)CC(=O)N2Cc2ccccc2)cc1OC (stereo not drawn),AC50,Cytochrome P450 2C19; read-out: AC50,39.8 µM (inconclusive)
CCCN1C(=O)/C(=C\c2ccncc2)S/C1=N/c1ccccc1,EC50,[3],> 195 µM (not active)
COc1ccc(/C=N/n2c(C)nc3c4ccccc4nc-3c2O)cc1CN1CCCC(C)(C)C1,EC50,Streptococcus,> 150 µM (not active)
same,EC50,Streptokinase A,> 150 µM (not active)
same,EC50,[4],10.9 µM (active)
COC(=O)c1cc(=O)n(C2CC2)/c(=N/C2CC2)s1,AC50,Cytochrome P450 2C19,inconclusive
CC(=O)Nc1c(O)oc2ccccc2/c1=N\C(C)C,AC50,Cytochrome P450 2C19,inconclusive
O=C(O)CCN1Cc2ccccc2C1=O,EC50,[3],> 195 µM (not active)
CC(C)Cn1c(=O)n(C)c(=O)c2[nH]cnc21 [ISOBUTYLMETHYLXANTHINE],AC50,Cytochrome P450 1A2,20 µM (inconclusive)
